# Reference: patent US7230011B2, “Benzenesulfonic acid indol-5-yl esters as antagonists of the 5ht6 receptor” (Eli Lilly and Company, priority 2002, dated 2007)
# Counter-ions that a name gives are not always drawn.
# Biological target: 5-HT6 receptor (Homo sapiens, UniProt P50406)
# Details: in words; cited from earlier work
# 5-HT6 receptor, sequence (P50406 whole entry): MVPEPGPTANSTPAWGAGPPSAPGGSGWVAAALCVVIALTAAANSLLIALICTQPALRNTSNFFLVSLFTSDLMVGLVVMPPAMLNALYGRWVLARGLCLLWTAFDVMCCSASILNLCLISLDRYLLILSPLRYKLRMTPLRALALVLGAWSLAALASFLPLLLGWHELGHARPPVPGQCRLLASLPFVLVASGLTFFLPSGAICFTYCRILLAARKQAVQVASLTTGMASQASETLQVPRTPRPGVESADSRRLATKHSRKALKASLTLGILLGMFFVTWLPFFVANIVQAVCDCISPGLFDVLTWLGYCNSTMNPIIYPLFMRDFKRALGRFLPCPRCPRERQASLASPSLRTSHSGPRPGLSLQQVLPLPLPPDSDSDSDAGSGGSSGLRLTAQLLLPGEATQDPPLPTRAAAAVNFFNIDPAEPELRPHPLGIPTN
row,Structure (SMILES),affinity for the 5-HT6 receptor
1,O=C(CCCN1CCC(O)(c2ccc(Cl)cc2)CC1)c1ccc(F)cc1 [haloperidol],do not have significant affinity
2,Cc1nc2n(c(=O)c1CCN1CCC(c3noc4cc(F)ccc34)CC1)CCCC2 [risperidone],do not have significant affinity

# Test system: not given
# Details: not given
row,melting point,Structure (SMILES)
1,188 to 191 °C,CN1CCC(c2cn(CCCc3ccccc3)c3ccc(OS(=O)(=O)c4ccccc4)cc23)CC1.O=C(O)C(=O)O
2,139 to 142 °C,CCCS(=O)(=O)n1cc(C2CCN(C)CC2)c2cc(OS(=O)(=O)c3ccccc3)ccc21.O=C(O)C(=O)O
3,134 to 138 °C,CC(C)S(=O)(=O)n1cc(C2CCN(C)CC2)c2cc(OS(=O)(=O)c3ccccc3)ccc21.O=C(O)C(=O)O
4,121 to 126 °C,CCS(=O)(=O)n1cc(C2CCN(C)CC2)c2cc(OS(=O)(=O)c3ccccc3)ccc21.O=C(O)C(=O)O
5,95 to 99 °C,CN1CCC(c2cn(S(C)(=O)=O)c3ccc(OS(=O)(=O)c4ccccc4)cc23)CC1.O=C(O)C(=O)O
6,193 to 198 °C,CCCCn1cc(C2CCN(C)CC2)c2cc(OS(=O)(=O)c3ccccc3)ccc21.O=C(O)C(=O)O
7,181 to 184 °C,CN1CCC(c2cn(Cc3ccc(F)cc3)c3ccc(OS(=O)(=O)c4ccccc4)cc23)CC1.O=C(O)C(=O)O
8,141 to 144 °C,CN1CCC(c2cn(Cc3ccc(F)cc3F)c3ccc(OS(=O)(=O)c4ccccc4)cc23)CC1.O=C(O)C(=O)O
9,222 to 224 °C,CN1CCC(c2cn(Cc3ccccc3F)c3ccc(OS(=O)(=O)c4ccccc4)cc23)CC1.Cl
10,103 to 107 °C,CC(C)n1cc(C2CCN(C)CC2)c2cc(OS(=O)(=O)c3ccccc3)ccc21.O=C(O)C(=O)O
11,202 to 205 °C,CN1CCC(c2cn(C3CCCC3)c3ccc(OS(=O)(=O)c4ccccc4)cc23)CC1.O=C(O)C(=O)O
12,169 to 172 °C,CCCCn1cc(C2CCN(C)CC2)c2cc(OS(=O)(=O)c3ccccc3)ccc21.Cl
13,185 to 189 °C,CCCn1cc(C2CCN(C)CC2)c2cc(OS(=O)(=O)c3c(F)cccc3F)ccc21.O=C(O)C(=O)O
14,149 °C,CN1CCC(c2c3n(c4ccc(OS(=O)(=O)c5c(F)cccc5F)cc24)CCC3)CC1.Cl
15,127 to 130 °C,CCn1cc(C2CCN(C)CC2)c2cc(OS(=O)(=O)c3ccccc3)ccc21.O=C(O)C(=O)O
16,209 to 212 °C,CN1CCC(c2cn(CCc3ccccc3)c3ccc(OS(=O)(=O)c4c(F)cccc4F)cc23)CC1.Cl
17,114 to 118 °C,CN1CCC(c2cn(Cc3ccc(F)cc3)c3ccc(OS(=O)(=O)c4c(F)cccc4F)cc23)CC1.Cl
18,194 to 197 °C,CCCn1cc(C2CCN(C)CC2)c2cc(OS(=O)(=O)c3ccccc3)ccc21.Cl
19,225 to 227 °C,CN1CCC(c2cn(Cc3ccccc3)c3ccc(OS(=O)(=O)c4c(F)cccc4F)cc23)CC1.Cl
20,195 to 198 °C (dec.),CN1CCC(c2cn(C)c3ccc(OS(=O)(=O)c4c(F)cccc4F)cc23)CC1.O=C(O)C(=O)O
21,135 to 142 °C,CN1CCC(c2cn(C)c3ccc(OS(=O)(=O)c4ccccc4)cc23)CC1.O=C(O)C(=O)O
22,161 to 165 °C,CCn1cc(C2CCN(C)CC2)c2cc(OS(=O)(=O)c3c(F)cccc3F)ccc21.O=C(O)C(=O)O
23,205 to 208 °C,CN1CCC(c2cn(Cc3ccccc3)c3ccc(OS(=O)(=O)c4c(F)cccc4F)cc23)CC1.O=C(O)C(=O)O
24,208 to 212 °C,CN1CCC(c2cn(CCc3ccccc3)c3ccc(OS(=O)(=O)c4ccccc4)cc23)CC1.O=C(O)C(=O)O
25,138 °C (dec.),"Cc1[nH]c2ccc(OS(=O)(=O)c3c(F)cccc3F)cc2c1C1CCN(C)CC1 (as salt: hydrochloride) [Example 31, 2,6-Difluorobenzenesulfonic acid 2-methyl-3-(1-methylpiperidin-4-yl)-1H-indol-5-yl ester]"
26,235 to 238 °C,CN1CCC(c2c[nH]c3ccc(OS(=O)(=O)c4c(F)cccc4F)cc23)CC1 [47]
27,214 to 215 °C,"CN1CCC(c2c[nH]c3ccc(OS(=O)(=O)c4c(F)cccc4F)cc23)CC1 [Example 42, 2,6-Difluorobenzenesulfonic acid 3-(1-methylpiperidin-4-yl)-1H-indol-5-yl ester]"
28,139 °C,"Cc1cc(OS(=O)(=O)c2c(F)cccc2F)cc2c(C3CCN(C)CC3)cn(C)c12 [Example 56, 2,6-Difluorobenzenesulfonic acid 1,7-dimethyl-3-(1-methylpiperidin-4-yl)-1H-indol-5-yl ester]"
29,158 °C,"Cc1cc(OS(=O)(=O)c2c(F)cccc2F)cc2c(C3CCN(C)CC3)cn(Cc3ccccc3)c12 [Example 59, 2,6-Difluorobenzenesulfonic acid 1-benzyl-7-methyl-3-(1-methylpiperidin-4-yl)-1H-indol-5-yl ester]"

# More lines, now with the values behind:
row,Structure (SMILES),melting point
1,CN1CCC(c2cn(S(=O)(=O)Cc3ccccc3)c3ccc(OS(=O)(=O)c4ccccc4)cc23)CC1.O=C(O)C(=O)O,120 to 124 °C
2,CN1CCC(c2cn(S(=O)(=O)c3cccc4ccccc34)c3ccc(OS(=O)(=O)c4ccccc4)cc23)CC1.O=C(O)C(=O)O,121 to 125 °C
3,CN1CCC(c2cn(Cc3ccccc3)c3ccc(OS(=O)(=O)c4ccccc4)cc23)CC1.Cl,227 to 230 °C
4,CN1CCC(c2cn(Cc3cccc(F)c3)c3ccc(OS(=O)(=O)c4ccccc4)cc23)CC1.Cl,103 to 105 °C
5,CC(C)Cn1cc(C2CCN(C)CC2)c2cc(OS(=O)(=O)c3ccccc3)ccc21.Cl,188 to 191 °C
6,CN1CCC(c2cn(CCCCc3ccccc3)c3ccc(OS(=O)(=O)c4ccccc4)cc23)CC1.Cl,158 to 161 °C
7,CN1CCC(c2cn(Cc3ccc(F)cc3)c3ccc(OS(=O)(=O)c4ccccc4)cc23)CC1.Cl,169 to 172 °C
8,CN1CC=C(c2c[nH]c3ccc(OS(=O)(=O)c4c(F)cccc4F)cc23)CC1,183 °C (dec.)
9,CN1CC=C(c2c[nH]c3ccc(OS(=O)(=O)c4ccccc4)cc23)CC1,186 to 190 °C
10,CN1CCC(c2c[nH]c3ccc(OS(=O)(=O)c4ccc(NS(C)(=O)=O)cc4)cc23)CC1.Cl,238 °C (dec.)
11,CN1CCC(c2c3n(c4ccc(OS(=O)(=O)c5ccccc5)cc24)CCC3)CC1.Cl,202 to 204 °C
12,CCCn1cc(C2=CCN(C)CC2)c2cc(OS(=O)(=O)c3ccccc3)ccc21 (as salt: hydrochloride),170 to 174 °C
13,"CN1CCC(c2c[nH]c3cc(F)c(OS(=O)(=O)c4c(F)cccc4F)cc23)CC1 [Example 32, 2,6-Difluorobenzenesulfonic acid 6-fluoro-3-(1-methylpiperidin-4-yl)-1H-indol-5-yl ester]",202 °C
14,"CN1CCC(c2c[nH]c3ccc(OS(=O)(=O)c4ccccc4)cc23)CC1 [Example 34, Benzenesulfonic acid 3-(1-methylpiperidin-4-yl)-1H-indol-5-yl ester]",192 to 194 °C
15,"CN1CCC(c2c[nH]c3ccc(OS(=O)(=O)c4ccc(F)cc4F)cc23)CC1 [Example 35, 2,4-Difluorobenzenesulfonic acid 3-(1-methylpiperidin-4-yl)-1H-indol-5-yl ester]",163 to 164 °C
16,"CN1CCC(c2c[nH]c3ccc(OS(=O)(=O)c4ccc(I)cc4)cc23)CC1 [Example 36, 4-Iodobenzenesulfonic acid 3-(1-methylpiperidin-4-yl)-1H-indol-5-yl ester]",174 to 176 °C
17,"CN1CCC(c2c[nH]c3ccc(OS(=O)(=O)c4ccc(Cl)cc4)cc23)CC1 [Example 37, 4-Chlorobenzenesulfonic acid 3-(1-methylpiperidin-4-yl)-1H-indol-5-yl ester]",182 to 183.5 °C
18,"COc1ccc(S(=O)(=O)Oc2ccc3[nH]cc(C4CCN(C)CC4)c3c2)cc1 [Example 38, 4-Methoxybenzenesulfonic acid 3-(1-methylpiperidin-4-yl)-1H-indol-5-yl ester]",186 to 187 °C
19,"Cc1ccc(S(=O)(=O)Oc2ccc3[nH]cc(C4CCN(C)CC4)c3c2)cc1 [Example 39, 4-Methylphenylsulfonic acid 3-(1-methylpiperidin-4-yl)-1H-indol-5-yl ester]",186 to 187 °C
20,"CN1CCC(c2c[nH]c3ccc(OS(=O)(=O)c4ccccc4F)cc23)CC1 [Example 40, 2-Fluorobenzenesulfonic acid 3-(1-methylpiperidin-4-yl)-1H-indol-5-yl ester]",180 to 182 °C
21,"CN1CCC(c2c[nH]c3ccc(OS(=O)(=O)c4ccc(F)c(F)c4F)cc23)CC1 [Example 41, 2,3,4-Trifluorobenzenesulfonic acid 3-(1-methylpiperidin-4-yl)-1H-indol-5-yl ester]",160 to 162 °C
22,"CN1CCC(c2c[nH]c3ccc(OS(=O)(=O)c4ccc([N+](=O)[O-])cc4)cc23)CC1 [Example 43, 4-Nitrobenzenesulfonic acid 3-(1-methylpiperidin-4-yl)-1H-indol-5-yl ester]",171 to 172 °C
23,"CN1CCC(c2c[nH]c3ccc(OS(=O)(=O)c4ccccc4)cc23)CC1 [Example 45, Benzenesulfonic acid 3-(1-methylpiperidin-4-yl)-1H-indol-5-yl ester]",189 to 194 °C
24,"CN1CCC(c2c[nH]c3ccc(OS(=O)(=O)c4ccc(F)cc4)cc23)CC1 [Example 51, 4-Fluorobenzenesulfonic acid 3-(1-methylpiperidin-4-yl)-1H-indol-5-yl ester]",170 to 172 °C
25,"Cc1cc(OS(=O)(=O)c2ccccc2)cc2c(C3CCN(C)CC3)c[nH]c12 [Example 62, Benzenesulfonic Acid 7-methyl-3-(1-methylpiperidin-4-yl)-1H-indol-5-yl Ester]",118 °C
26,"Cc1cc(OS(=O)(=O)c2c(Cl)cccc2Cl)cc2c(C3CCN(C)CC3)c[nH]c12 [Example 63, 2,6-Dichlorobenzenesulfonic Acid 7-methyl-3-(1-methylpiperidin-4-yl)-1H-indol-5-yl Ester]",179 °C
